From BindingDB's records for doi:10.1016/j.bmcl.2006.08.033 (University of Maryland, 2006)

Target: Guanine deaminase (Oryctolagus cuniculus)
Assay: Inhibition of rabbit liver guanase

Ki [µM] | SMILES
20.1 | O=C1NC(CO)C(=O)Nc2c1ncn2Cc1ccccc1 (configuration not stated) [3-benzyl-4,5,7,8-tetrahydro-6-hydroxymethyl-6H-imidazo[4,5-e][1,4]diazepine-5,8-dione]
53.6 | O=C1NC(CO)C(=O)Nc2nc[nH]c21 (configuration not stated) [4,5,7,8-tetrahydro-6-hydroxymethyl-6H-imidazo[4,5-e][1,4]diazepine-5,8-dione]
